Consider nine molecules from patent US9982242B2, “Protein complex capable of catalyzing asymmetric oxidation reaction and method for producing same” (SANYO FOODS CO., LTD., priority 2012, dated 2018).

One assay has as its system CLPC. The conditions noted are these: 1 mM.
As to `O=C(O)CN(CCN(CC(=O)O)CC(=O)O)CC(=O)O` [EDTA], the “effect of additive on CLPC activity” value is “activity was completely lost”.

As for `[Cl-].[Cl-].[Zn+2]` [ZnCl2], the “effect of additive on CLPC activity” value was “inhibitory activity was observed”.

Staying with this assay, now noted: additive 1.0 mM, CLPC 20 mg, rac-2 0.8 mM, […], 48 h.
`[Ca+2].[Cl-].[Cl-]` [CaCl2]: the “OP/% ee of (S)-2 with additive” value worked out at 97.7 % ee.

As to `O=S(=O)([O-])[O-].[Cu+2]` [CuSO4], the “OP/% ee of (S)-2 with additive” value is given as 86.2 % ee.

With `[Cl][Fe]([Cl])[Cl]` [FeCl3], the “OP/% ee of (S)-2 with additive” value was 79.6 % ee.

As for `O=S(=O)([O-])[O-].[Mg+2]` [MgSO4], the “OP/% ee of (S)-2 with additive” value was determined as 91.2 % ee.

Regarding `[Cl][Mn][Cl]` [MnCl2], the “OP/% ee of (S)-2 with additive” value amounted to 80.4 % ee.

In the case of `[Cl][Ni][Cl]` [NiCl2], the “OP/% ee of (S)-2 with additive” value is on record as 77.7 % ee.

Consider `[Cl-].[Cl-].[Zn+2]` [ZnCl2], for which the “OP/% ee of (S)-2 with additive” value worked out at 1.7 % ee.

As for `c1cnc2c(c1)ccc1cccnc12` [o-phenanthroline], the “OP/% ee of (S)-2 with additive” value is on record as 1.4 % ee.
